From ChEMBL document CHEMBL1201862, “PubChem BioAssay data set” (2004)
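Method: 48-hour compound exposure of cells in 96-well plates, five concentrations, linear interpolation of endpoints. Abbreviation: GI50, concentration required for 50% inhibition of growth.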 Activity calls are given as the source filed them. No stated cut-off is given here; in the data, active = GI50 up to about 1.1 µM and inactive = higher.

Tests used:
Experiment in all cases: NCI anticancer screen, dose series, 48 h
SK-MEL-5 = test system: SK-MEL-5
MCF7 = test system: MCF7
CAKI-1 = test system: CAKI-1
TK-10 = test system: TK-10
ACHN = test system: ACHN
CCRF-CEM = test system: CCRF-CEM
OVCAR-3 = test system: OVCAR-3
A549 = test system: A549
UACC-257 = test system: UACC-257
EKVX = test system: EKVX
UACC-62 = test system: UACC-62
OVCAR-8 = test system: OVCAR-8
SNB-19 = test system: SNB-19
SF-295 = test system: SF-295
HCT-116 = test system: HCT-116
T47D = test system: T47D
NCI-H460 = test system: NCI-H460
DU-145 = test system: DU-145
PC-3 = test system: PC-3
OVCAR-4 = test system: OVCAR-4

Row | SMILES | GI50 (SK-MEL-5) | GI50 (MCF7) | GI50 (CAKI-1) | GI50 (TK-10) | GI50 (ACHN) | GI50 (CCRF-CEM) | GI50 (OVCAR-3) | GI50 (A549) | GI50 (UACC-257) | GI50 (EKVX) | GI50 (UACC-62) | GI50 (OVCAR-8) | GI50 (SNB-19) | GI50 (SF-295) | GI50 (HCT-116) | GI50 (T47D) | GI50 (NCI-H460) | GI50 (DU-145) | GI50 (PC-3) | GI50 (OVCAR-4)
1 | Nc1ccc2c(c1)S(=O)(=O)c1cc(O)ccc1O2 | > 100 µM (inactive) | > 100 µM (inactive) | 45.2 µM (inactive) | > 100 µM (inactive) | > 100 µM (inactive) | > 100 µM (inactive) | > 100 µM (inactive) | > 100 µM (inactive) | > 100 µM (inactive) | > 100 µM (inactive) | > 100 µM (inactive) | > 100 µM (inactive) | > 100 µM (inactive) | > 100 µM (inactive) | > 100 µM (inactive) | > 100 µM (inactive) | > 100 µM (inactive) | > 100 µM (inactive) | > 100 µM (inactive) | > 100 µM (inactive)
2 | Cc1ccc(/N=N/C(=N\c2ccc(Cl)cc2)c2ccc(N(CCC#N)CCC#N)cc2)cc1 | 2.63 µM (inactive) | 21.6 µM (inactive) | > 100 µM (inactive) | 21.7 µM (inactive) | 42 µM (inactive) | 21.6 µM (inactive) | 33.4 µM (inactive) | 29.6 µM (inactive) | 12.4 µM (inactive) | 22.9 µM (inactive) | 11.8 µM (inactive) | 63.8 µM (inactive) | > 100 µM (inactive) | 3.98 µM (inactive) | 49 µM (inactive) | 12.5 µM (inactive) | 18.1 µM (inactive) | 37.7 µM (inactive) | 22.6 µM (inactive) | 51.4 µM (inactive)
3 | CC(C)(C)n1c(=O)n(C(=O)C(Cl)(Cl)Cl)n(C(=O)C(Cl)(Cl)Cl)c1=O | > 100 µM (inactive) | > 100 µM (inactive) | > 100 µM (inactive) | > 100 µM (inactive) | > 100 µM (inactive) | > 100 µM (inactive) | > 100 µM (inactive) | > 100 µM (inactive) | > 100 µM (inactive) | > 100 µM (inactive) | > 100 µM (inactive) | > 100 µM (inactive) | > 100 µM (inactive) | > 100 µM (inactive) | > 100 µM (inactive) | > 100 µM (inactive) | > 100 µM (inactive) | > 100 µM (inactive) | > 100 µM (inactive) | > 100 µM (inactive)
4 | c1ccc(/C(=N\Nc2nc3ccccc3[nH]2)c2ccccn2)cc1 | 0.427 µM (active) | 0.148 µM (active) | 0.425 µM (active) | 0.314 µM (active) | 0.268 µM (active) | 0.0959 µM (active) | 0.169 µM (active) | 0.596 µM (active) | 0.298 µM (active) | 0.47 µM (active) | 0.82 µM (active) | 0.254 µM (active) | 1.22 µM (inactive) | 1.69 µM (inactive) | 0.0362 µM (active) | 0.136 µM (active) | 0.617 µM (active) | 2.13 µM (inactive) | 0.182 µM (active) | 0.208 µM (active)
5 | O=C(Cn1c(=O)oc2ccc(C(=O)c3cccc(Cl)c3)cc21)c1ccccc1 | 23.1 µM (inactive) | 87.9 µM (inactive) | > 100 µM (inactive) | > 100 µM (inactive) | > 100 µM (inactive) | > 100 µM (inactive) | > 100 µM (inactive) | 27.2 µM (inactive) | 19.5 µM (inactive) | 30.1 µM (inactive) | > 100 µM (inactive) | > 100 µM (inactive) | > 10 µM (inactive) | 44.6 µM (inactive) | > 10 µM (inactive) | 4.53 µM (inactive) | 41.7 µM (inactive) | > 100 µM (inactive) | > 100 µM (inactive) | 12.8 µM (inactive)
6 | COC(COC(=O)N1CCN(C=O)CC1)C1=C(N2CC2)C(=O)C(C)=C(N2CC2)C1=O (stereo not given) | 0.172 µM (active) | 0.0313 µM (active) | 0.12 µM (active) | 0.579 µM (active) | < 0.0193 µM (active) | 0.13 µM (active) | 0.656 µM (active) | 0.167 µM (active) | 0.309 µM (active) | 5.08 µM (inactive) | 0.169 µM (active) | 0.17 µM (active) | 0.437 µM (active) | 1.22 µM (inactive) | 0.157 µM (active) | 0.257 µM (active) | < 0.0278 µM (active) | 0.0472 µM (active) | 0.461 µM (active) | 0.585 µM (active)
7 | COc1cc(C2c3cc4c(cc3[C@@H](Nc3ccc(C#N)cc3)C3COC(=O)[C@H]23)OCO4)cc(OC)c1O (stereo not given in full) | 0.661 µM (active) | 0.881 µM (active) | 0.436 µM (active) | 7.82 µM (inactive) | 0.184 µM (active) | 0.524 µM (active) | 14.4 µM (inactive) | 0.166 µM (active) | 7.26 µM (inactive) | 16.7 µM (inactive) | 0.962 µM (active) | 0.975 µM (active) | 1.39 µM (inactive) | 0.767 µM (active) | 2.01 µM (inactive) | 0.828 µM (active) | 0.038 µM (active) | 0.273 µM (active) | 9.82 µM (inactive) | 3.43 µM (inactive)
8 | CCC1(O)CC(OC2CC(N(C)C)C(OC3CC(O)C(OC4OC(C)C(=O)C=C4N)C(C)O3)C(C)O2)c2c(cc3c(c2O)C(=O)c2c(O)cccc2C3=O)C1C(=O)OC (stereo not given) | 0.00469 µM (active) | 0.01 µM (active) | 0.00604 µM (active) | 0.06 µM (active) | 0.0206 µM (active) | 0.00169 µM (active) | 0.129 µM (active) | 0.00272 µM (active) | 0.0211 µM (active) | 0.0224 µM (active) | 0.0121 µM (active) | 0.00415 µM (active) | 0.0282 µM (active) | 0.0016 µM (active) | < 0.001 µM (active) | 0.0292 µM (active) | < 0.001 µM (active) | 0.00637 µM (active) | 0.00566 µM (active) | 0.01 µM (active)
9 | NS(=O)(=O)c1ccc(/N=N/c2cccnc2O)cc1 | > 100 µM (inactive) | > 100 µM (inactive) | > 100 µM (inactive) | > 100 µM (inactive) | > 100 µM (inactive) | 20.7 µM (inactive) | > 100 µM (inactive) | > 100 µM (inactive) | > 100 µM (inactive) | > 100 µM (inactive) | > 100 µM (inactive) | > 100 µM (inactive) | > 100 µM (inactive) | > 100 µM (inactive) | > 100 µM (inactive) | > 100 µM (inactive) | > 100 µM (inactive) | > 100 µM (inactive) | > 100 µM (inactive) | > 100 µM (inactive)
10 | O=c1ccc2cc(O)c(O)cc2o1 [ESCULETIN] | > 100 µM (inactive) | > 100 µM (inactive) | > 100 µM (inactive) | > 100 µM (inactive) | > 100 µM (inactive) | > 100 µM (inactive) | > 100 µM (inactive) | > 100 µM (inactive) | > 100 µM (inactive) | > 100 µM (inactive) | > 100 µM (inactive) | > 100 µM (inactive) | > 100 µM (inactive) | > 100 µM (inactive) | > 100 µM (inactive) | > 41.8 µM (inactive) | > 100 µM (inactive) | > 100 µM (inactive) | > 92.9 µM (inactive) | 97.3 µM (inactive)
